These results are taken from US6642256B2, “Piperidine derivatives as subtype selective N-Methyl-D-Aspartate antagonists” (Warner-Lambert Company LLC, priority 2000, dated 2003).

The target of this experiment is T1, NR1A/NR2B NMDA receptor subtype (Rattus norvegicus, UniProt P35439+Q00960).
T1 construct: buffy coat membrane fraction was prepared from frozen adult rat forebrains; tissue Zivic-Miller Laboratories, Inc; host or cells: adult rat forebrain membranes
The experiment in a line: [3H]Ifenprodil binding assay (IFPNR), rat forebrain membranes. The note with it: Table 1, 4 nM [3H]-ifenprodil, read-out: IFPNR (IC50 μM). How it is done: b. [^3H]Ifenprodil Binding Assay (IFPNR) Protocol:
Ifenprodil, [phenyl-^3H]-(specific activity, 66.2 Ci/mmol) was purchased from Dupont NEN Research Products (Boston, Mass.). Ifenprodil tartrate was purchased from Research Biochemicals International (Natick, Mass.). HEPES, glutamate and glycine were purchased from Sigma Chemical Co. (St. Louis, Mo.).
All buffers and reagents used in assay incubations or to dissolve drugs were prepared using water purified through a Milli-Q reverse osmosis system (Millipore Corp., Bedford, Mass.) and treated with UV emissions. Prior to use in the assays buffers were further filtered through a sterile Coming filtration unit (Coming Glass Works, Coming, N.Y.) containing a 0.2 micron filter. Buffer used to rinse the membranes on the assay filters was prepared with purified water, but was not refiltered and was stored no longer than 5 days. Stock solutions of the drugs (usually 10 mM) were dissolved in 20 mM HEPES-KOH buffer pH 7.4 (assay buffer) with the addition of 1 to 5 μL of glacial AcOH, if needed to keep them in solution. Eliprodil was used as the reference NMDA antagonist. A stock solution of eliprodil was prepared, and was buffered with the addition of 10% DMSO. All subsequent dilutions from the stock solution were made in buffer.
An extensively washed buffy coat membrane fraction was prepared from frozen adult rat forebrains (Zivic-Miller Laboratories, Inc., Zelienople, Pa.) as described by Coughenour L. L.; Cordon, J. J., J. Pharmacol. Exp. Ther., 1997;280:584-592, and stored at −80° C. On the day of the assay, pellets of the frozen membrane fractions were resuspended in 35 mL of assay buffer at pH 7.4 using a POLYTRON (Kinematica A. G. Company, Littau, Switzerland) mixer at setting 6. After incubation at 37° C. for 30 minutes in a shaking water bath, the homogenate was centrifuged 40,000×g for 10 minutes at 4° C. The pellets were resuspended in fresh buffer and centrifuged 3 more times before final suspension for use in the assay.
(iii) [^3H]Ifenprodil Binding protocol:
Triplicate incubations were carried out in a volume of 0.5 mL in 1.3 mL polypropylene tubes (Marsh Biomedical Products Inc, Rochester, N.Y.) for 2 hours at room temperature. Incubations contained invention compounds, membranes (100-200 μg protein) and 4 nM [^3H]-ifenprodil in 20 mM HEPES-KOH buffer, pH 7.4 (assay buffer). Assays were started by addition of the membranes. Bound radioligand was separated by filtration under reduced pressure using a TOMTEC Mach II, 96-well cell harvester (Tomtec Inc, Orange, Conn.). Filtration was through Whatman GF/B glass fiber filters (Whatman Ltd., Maidstone, England), which had been soaked for at least 15 minutes in 0.3% polyethylenimine and allowed to air dry. The filters were rinsed with 3 mL of ice cold assay buffer within 6 seconds. Air was allowed to pass through the filters for an additional 10 seconds to remove residual moisture. The filter mat was supported on a cold (−20° C.) TEFLON (E. I. Du Pont de Nemours and Company, Wilmington, Del.) coated support, and filters from individual wells were separated and placed in Mini Poly-Q vials (Becklman Instruments Inc, Fullerton, Calif.) and filled with 4 mL of scintillation cocktail (Beckman Ready Protein^+). Radioactivity retained on the filter was determined by liquid scintillation spectrophotometry. Nonspecific binding was defined as the binding in the presence of […] ifenprodil. Ninety percent of the total binding of ifenprodil was specific binding at the NR1A/NR2B NMDA receptor subtype active site (as opposed to binding at a remote site).
Binding curves were statistically analyzed for a best 1- or 2-site competition fit using GRAPHPAD PRISM software (GraphPad Software Inc, San Diego, Calif.), a computer program used to analyze and graph scientific data. The normalized data was fitted by nonweighted nonlinear regression to either [formula]
Control data was entered as 100%, and no parameters were constrained. […]

Each structure is given as a SMILES string.

T1 sequence (Q00960 27-1482, other chains not shown): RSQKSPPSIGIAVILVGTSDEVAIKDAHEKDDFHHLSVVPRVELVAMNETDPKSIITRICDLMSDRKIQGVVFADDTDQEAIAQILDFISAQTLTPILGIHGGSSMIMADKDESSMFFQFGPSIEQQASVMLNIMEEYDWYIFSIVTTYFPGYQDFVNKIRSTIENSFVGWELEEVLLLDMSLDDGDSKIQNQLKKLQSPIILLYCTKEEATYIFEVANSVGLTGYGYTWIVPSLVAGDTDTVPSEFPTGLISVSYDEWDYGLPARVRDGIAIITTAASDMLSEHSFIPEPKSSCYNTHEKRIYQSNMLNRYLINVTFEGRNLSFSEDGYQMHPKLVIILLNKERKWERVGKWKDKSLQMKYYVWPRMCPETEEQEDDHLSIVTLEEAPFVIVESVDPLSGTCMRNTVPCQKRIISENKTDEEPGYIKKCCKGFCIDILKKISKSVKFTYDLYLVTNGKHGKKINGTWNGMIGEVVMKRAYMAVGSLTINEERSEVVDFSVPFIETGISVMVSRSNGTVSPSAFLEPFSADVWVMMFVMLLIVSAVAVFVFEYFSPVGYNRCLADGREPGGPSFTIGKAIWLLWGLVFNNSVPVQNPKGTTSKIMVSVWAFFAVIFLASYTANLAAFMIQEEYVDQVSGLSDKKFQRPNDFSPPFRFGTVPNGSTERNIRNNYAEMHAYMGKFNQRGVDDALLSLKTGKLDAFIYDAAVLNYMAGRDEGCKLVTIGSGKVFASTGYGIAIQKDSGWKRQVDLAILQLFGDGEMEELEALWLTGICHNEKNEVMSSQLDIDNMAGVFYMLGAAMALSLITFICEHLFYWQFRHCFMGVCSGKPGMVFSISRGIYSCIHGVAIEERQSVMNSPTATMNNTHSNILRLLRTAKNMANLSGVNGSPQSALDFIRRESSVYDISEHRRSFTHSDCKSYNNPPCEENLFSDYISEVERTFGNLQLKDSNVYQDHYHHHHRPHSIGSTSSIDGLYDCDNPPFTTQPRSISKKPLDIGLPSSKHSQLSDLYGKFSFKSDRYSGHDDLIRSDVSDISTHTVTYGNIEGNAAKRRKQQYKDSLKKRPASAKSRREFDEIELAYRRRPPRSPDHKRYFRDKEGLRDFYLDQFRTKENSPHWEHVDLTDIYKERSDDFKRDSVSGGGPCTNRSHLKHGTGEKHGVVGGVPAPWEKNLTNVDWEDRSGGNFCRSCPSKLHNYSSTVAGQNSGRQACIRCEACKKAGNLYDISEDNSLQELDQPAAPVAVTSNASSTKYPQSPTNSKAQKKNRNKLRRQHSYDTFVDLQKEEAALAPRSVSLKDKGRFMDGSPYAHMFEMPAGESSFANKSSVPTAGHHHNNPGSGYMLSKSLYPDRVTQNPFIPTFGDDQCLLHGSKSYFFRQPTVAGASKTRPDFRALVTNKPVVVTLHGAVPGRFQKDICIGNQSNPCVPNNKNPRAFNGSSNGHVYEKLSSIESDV

As to `O=c1[nH]c2ccc(C3=NOC(CN4CCC(Cc5ccccc5)CC4)C3)cc2o1` (racemic) [Example 1, 6-[5-(4-Benzylpiperidin-1-ylmethyl)-4,5-dihydroisoxazol-3-yl]-3H-benzoxazol-2-one], the IC50 – broadly, the concentration that gives 50% inhibition – turned out to be 0.033 µM.
On to `O=c1[nH]c2ccc(C3=NOC(CN4CCC(Cc5ccc(F)cc5)CC4)C3)cc2o1` (single isomer, unassigned; (-)) [Example 4b, (−)-6-{5-[4-(4-Fluorobenzyl)piperidin-1-ylmethyl]4,5-dihydroisoxazol-3-yl}-3H-benzoxazol-2-one], for which the 50% inhibitory concentration (IC50) is 0.28 µM.
